Data on 17 compounds can be found in ChEMBL document CHEMBL1131161 (J Med Chem, 1998).

The subject of one assay is CV-1. Briefly: Inhibitory concentration in CV-1 cell. The assay is classed as functional, cell-based, Cercopithecidae. The note with it: Chlorocebus aethiops.
Assay [1] addresses T1, Progesterone receptor (Homo sapiens, UniProt P06401).
T1 sequence (P06401 whole entry): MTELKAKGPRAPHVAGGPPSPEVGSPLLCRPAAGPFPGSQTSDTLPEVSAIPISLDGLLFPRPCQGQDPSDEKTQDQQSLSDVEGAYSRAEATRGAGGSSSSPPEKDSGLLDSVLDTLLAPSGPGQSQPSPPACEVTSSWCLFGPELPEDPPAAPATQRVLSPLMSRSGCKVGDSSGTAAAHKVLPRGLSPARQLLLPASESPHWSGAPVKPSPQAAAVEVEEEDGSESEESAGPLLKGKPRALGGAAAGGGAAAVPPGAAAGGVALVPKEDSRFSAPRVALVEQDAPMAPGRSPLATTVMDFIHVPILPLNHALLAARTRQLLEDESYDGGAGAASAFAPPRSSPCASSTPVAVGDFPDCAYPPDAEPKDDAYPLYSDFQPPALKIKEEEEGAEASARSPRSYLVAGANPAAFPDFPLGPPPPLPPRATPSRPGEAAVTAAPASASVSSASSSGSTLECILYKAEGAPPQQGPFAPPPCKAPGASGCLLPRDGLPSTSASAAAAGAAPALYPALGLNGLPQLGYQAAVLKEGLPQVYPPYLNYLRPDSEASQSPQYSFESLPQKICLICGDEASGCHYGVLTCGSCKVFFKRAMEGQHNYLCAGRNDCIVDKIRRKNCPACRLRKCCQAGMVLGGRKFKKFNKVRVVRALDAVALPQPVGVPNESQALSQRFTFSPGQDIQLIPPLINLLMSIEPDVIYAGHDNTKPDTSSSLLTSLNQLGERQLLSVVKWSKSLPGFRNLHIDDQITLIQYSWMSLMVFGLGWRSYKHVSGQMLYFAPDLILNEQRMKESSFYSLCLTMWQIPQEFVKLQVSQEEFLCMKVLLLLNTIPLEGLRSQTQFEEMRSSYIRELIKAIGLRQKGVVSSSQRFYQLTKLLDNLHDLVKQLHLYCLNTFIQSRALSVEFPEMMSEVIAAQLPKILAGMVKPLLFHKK
Briefly: Effective concentration (EC50) against human progesterone receptor expressed in CV-1 cell. The assay is classed as functional, cell-based.

The target of assay [2] is T1, Progesterone receptor. Briefly: Binding affinity against human progesterone receptor.

pEC50, pIC50, pKi: −log10 of the molar value.

On to `CC1=CC(C)(C)Nc2ccc3c(c21)/C(=C/c1cccc(F)c1F)Oc1ccccc1-3`, for which the pIC50 (usually the negative decadic logarithm of the IC50, by convention in mol/L) in the assay on CV-1 was 6.27. Also, at Progesterone receptor [1], the pEC50 (usually the EC50 on a negative log10 scale, so that one unit is a factor of ten) is 7.58. Moreover, on Progesterone receptor [2], the negative logarithm of the Ki (pKi) (in general, the Ki on a negative log10 scale, so that one unit is a factor of ten) was 7.61.
The corresponding values for `COc1cccc(/C=C2\Oc3ccccc3-c3ccc4c(c32)C(C)=CC(C)(C)N4)c1` are 6.37, less than 5.00 and 7.27.
The corresponding values for `CC1=CC(C)(C)Nc2ccc3c(c21)/C(=C/c1ccccc1Br)Oc1ccccc1-3` are less than 5.00, 7.24 and 8.26.
The corresponding values for `CC1=CC(C)(C)Nc2ccc3c(c21)/C(=C/c1ccccc1Cl)Oc1ccccc1-3` are less than 5.00, 7.24 and 8.89.
Regarding `CC1=CC(C)(C)Nc2ccc3c(c21)/C(=C/c1cccc(Br)c1)Oc1ccccc1-3`, in the assay on CV-1, the negative logarithm of the IC50 (pIC50) is less than 5.00. The same compound showed a pEC50 at Progesterone receptor [1] of 7.43. The pKi at Progesterone receptor [2] was 7.66.
The matching figures for `CC1=CC(C)(C)Nc2ccc3c(c21)/C(=C/c1c(F)cccc1F)Oc1ccccc1-3`: 6.66, 7.49 and 7.50.
The matching figures for `CC1=CC(C)(C)Nc2ccc3c(c21)/C(=C/c1cccc(C)c1)Oc1ccccc1-3`: less than 5.00, 7.12 and 7.40.
`CC1=CC(C)(C)Nc2ccc3c(c21)/C(=C/c1ccc(F)cc1F)Oc1ccccc1-3`: the pIC50 in the assay on CV-1 is 6.26. Further, the pEC50 on Progesterone receptor [1] is 7.66.
Compound `CC1=CC(C)(C)Nc2ccc3c(c21)/C(=C/c1cc(F)cc(F)c1)Oc1ccccc1-3` gave a pIC50 in the assay on CV-1 of less than 5.00. Besides, on Progesterone receptor [1], the negative logarithm of the EC50 (pEC50) is 7.32. The same compound gave a negative-log Ki (pKi) at Progesterone receptor [2] of 7.90.
The matching figures for `CC1=CC(C)(C)Nc2ccc3c(c21)/C(=C/c1ccc(C)cc1)Oc1ccccc1-3`: 6.23, less than 5.00 and 7.15.
The matching figures for `CC1=CC(C)(C)Nc2ccc3c(c21)/C(=C/c1ccc(Br)cc1)Oc1ccccc1-3`: less than 5.00, 7.50 and 8.06.
The corresponding values for `CC1=CC(C)(C)Nc2ccc3c(c21)/C(=C/c1ccc(Cl)cc1)Oc1ccccc1-3` are 6.06, 6.86 and 7.22.
The compound `CC1=CC(C)(C)Nc2ccc3c(c21)/C(=C/c1ccccc1F)Oc1ccccc1-3` showed a pIC50 in the assay with CV-1 of less than 5.00. Further, at Progesterone receptor [1], the pEC50 is 7.54. This compound also gave a pKi on Progesterone receptor [2] of 8.25.
The matching figures for `CC1=CC(C)(C)Nc2ccc3c(c21)/C(=C/c1cccc(Cl)c1)Oc1ccccc1-3`: less than 5.00, 6.93 and 7.73.
In the assay on CV-1, `CC1=CC(C)(C)Nc2ccc3c(c21)C(Cc1ccccc1)Oc1ccccc1-3` (stereo not drawn) gave a pIC50 of 6.57. The pEC50 at Progesterone receptor [1] is 7.77. The same compound had a pKi on Progesterone receptor [2] of 8.68.
`CC1=CC(C)(C)Nc2ccc3c(c21)/C(=C/c1ccc(F)cc1)Oc1ccccc1-3` gave a pIC50 in the assay on CV-1 of less than 5.00. On Progesterone receptor [1], this compound gave a negative logarithm of the EC50 (pEC50) of 7.23. Besides, the pKi on Progesterone receptor [2] was 8.46.
In turn, `CC1=CC(C)(C)Nc2ccc3c(c21)C(c1ccccc1)Oc1ccccc1-3` (stereo not drawn) showed a negative logarithm of the IC50 (pIC50) in the assay on CV-1 of 6.54.
